Data as given in patent US9161935B2 (TEVA PHARMACEUTICAL INDUSTRIES, LTD., priority 2012, dated 2015).

Tested on: Sub-Populations of Crohn's Disease Patients
Test: CD-LAQ-201 sub-populations of Crohn's disease patients (Example 2)
Type: in vivo, human
Details: for Remission - N (%): % / Remission - N (%): N: week 8
Experimental: This study was conducted according and with similar requirements as presented in Example 1. […] Patients, who have received anti-TNFαs in the past, tend to reflect a more severe, refractory segment of the Crohn's disease population. […] This sub-cohort analysis describes remission rates at week 8 for patients who were classified as having a predominantly inflammatory disease (based on the Montreal classifications) versus those that have a fibrostenotic or penetrating disease.

[1] = Laq 0.5 mg, Oral steroids on Baseline NO
[2] = Laq 0.5 mg, Oral steroids on Baseline YES
[3] = Laq 0.5 mg, Previous Operations NO
[4] = Laq 0.5 mg, Previous Operations YES
[5] = Laq 0.5 mg, Previous use of anti-TNFαs NO
[6] = Laq 0.5 mg, Previous use of anti-TNFαs YES
[7] = Laq 1.0 mg, Oral steroids on Baseline NO
[8] = Laq 1.0 mg, Oral steroids on Baseline YES
[9] = Laq 1.0 mg, Previous Operations NO
[10] = Laq 1.0 mg, Previous Operations YES
[11] = Laq 1.0 mg, Previous use of anti-TNFαs NO
[12] = Laq 1.0 mg, Previous use of anti-TNFαs YES

## CCN(C(=O)c1c(O)c2c(Cl)cccc2n(C)c1=O)c1ccccc1 [laquinimod]
0.5 mg
  effect on remission at week 8 with or without previous anti-TNFαs: remains robust on both sub-populations
0.5 mg or 1 mg
  effect on remission at week 8 in fibrostenotic or penetrating disease: no effect
0.5 mg/day laquinimod
  effectiveness in anti-TNF refractory patients (FIG. 1): robustly effective
1 mg/day laquinimod
  effectiveness in anti-TNF refractory patients (FIG. 1): effective relative to placebo
Laq 0.5 mg, Fibrostenotic
  CDAI Change from Baseline - Mean ± SD: −9.3
  Responders70 - N (%): %: 42.9%
  Responders70 - N (%): N: 3
  Responders100 - N (%): %: 28.6%
  Responders100 - N (%): N: 2
  Remission - N (%): %: 14.3%
  Remission - N (%): N: 1
Laq 0.5 mg, Inflammatory
  CDAI Change from Baseline - Mean ± SD: −125.1
  Responders70 - N (%): %: 68.2%
  Responders70 - N (%): N: 15
  Responders100 - N (%): %: 63.6%
  Responders100 - N (%): N: 14
  Remission - N (%): %: about 60%
  Remission - N (%): N: 13
Laq 0.5 mg, Inflammatory, listed as Laq
  Remission - N (%): %: 59.1%
[1]
  CDAI Change from Baseline - Mean ± SD: −85.3
  Responders70 - N (%): %: 57.9%
  Responders70 - N (%): N: 11
  Responders100 - N (%): %: 47.4%
  Responders100 - N (%): N: 9
  Remission - N (%): %: about 40%
  Remission - N (%): N: 8
Laq 0.5 mg, Oral steroids on Baseline NO, listed as Laq
  Remission - N (%): %: 42.1%
[2]
  CDAI Change from Baseline - Mean ± SD: −119.8
  Responders70 - N (%): %: 70.0%
  Responders70 - N (%): N: 7
  Responders100 - N (%): %: 70.0%
  Responders100 - N (%): N: 7
  Remission - N (%): %: approximately 60%
  Remission - N (%): N: 6
Laq 0.5 mg, Oral steroids on Baseline YES, listed as Laq
  Remission - N (%): %: 60.0%
[3]
  CDAI Change from Baseline - Mean ± SD: −118.1
  Responders70 - N (%): %: 62.5%
  Responders70 - N (%): N: 15
  Responders100 - N (%): %: 58.3%
  Responders100 - N (%): N: 14
  Remission - N (%): %: higher than 50%
  Remission - N (%): N: 13
Laq 0.5 mg, Previous Operations NO, listed as Laq
  Remission - N (%): %: 54.2%
[4]
  CDAI Change from Baseline - Mean ± SD: 3.2
  Responders70 - N (%): %: 60.0%
  Responders70 - N (%): N: 3
  Responders100 - N (%): %: 40.0%
  Responders100 - N (%): N: 2
  Remission - N (%): %: 20.0%
  Remission - N (%): N: 1
[5]
  CDAI Change from Baseline - Mean ± SD: −88.2
  Responders70 - N (%): %: 63.6%
  Responders70 - N (%): N: 7
  Responders100 - N (%): %: 54.5%
  Responders100 - N (%): N: 6
  Remission - N (%): %: 54.5%
  Remission - N (%): N: 6
[6]
  CDAI Change from Baseline - Mean ± SD: −102.7
  Responders70 - N (%): %: 61.1%
  Responders70 - N (%): N: 11
  Responders100 - N (%): %: 55.6%
  Responders100 - N (%): N: 10
  Remission - N (%): %: 44.4%
  Remission - N (%): N: 8
Laq 1.0 mg, Fibrostenotic
  CDAI Change from Baseline - Mean ± SD: −65.8
  Responders70 - N (%): %: 41.7%
  Responders70 - N (%): N: 5
  Responders100 - N (%): %: 41.7%
  Responders100 - N (%): N: 5
  Remission - N (%): %: 16.7%
  Remission - N (%): N: 2
Laq 1.0 mg, Inflammatory
  CDAI Change from Baseline - Mean ± SD: −76.7
  Responders70 - N (%): %: 61.1%
  Responders70 - N (%): N: 11
  Responders100 - N (%): %: 38.9%
  Responders100 - N (%): N: 7
  Remission - N (%): %: 33.3%
  Remission - N (%): N: 6
[7]
  CDAI Change from Baseline - Mean ± SD: −59.4
  Responders70 - N (%): %: 50.0%
  Responders70 - N (%): N: 9
  Responders100 - N (%): %: 33.3%
  Responders100 - N (%): N: 6
  Remission - N (%): %: 22.2%
  Remission - N (%): N: 4
[8]
  CDAI Change from Baseline - Mean ± SD: −93.5
  Responders70 - N (%): %: 58.3%
  Responders70 - N (%): N: 7
  Responders100 - N (%): %: 50.0%
  Responders100 - N (%): N: 6
  Remission - N (%): %: 33.3%
  Remission - N (%): N: 4
[9]
  CDAI Change from Baseline - Mean ± SD: −77.9
  Responders70 - N (%): %: 55.6%
  Responders70 - N (%): N: 10
  Responders100 - N (%): %: 38.9%
  Responders100 - N (%): N: 7
  Remission - N (%): %: 33.3%
  Remission - N (%): N: 6
[10]
  CDAI Change from Baseline - Mean ± SD: −66.0
  Responders70 - N (%): %: 50.0%
  Responders70 - N (%): N: 6
  Responders100 - N (%): %: 41.7%
  Responders100 - N (%): N: 5
  Remission - N (%): %: 16.7%
  Remission - N (%): N: 2
[11]
  CDAI Change from Baseline - Mean ± SD: −38.5
  Responders70 - N (%): %: 27.3%
  Responders70 - N (%): N: 3
  Responders100 - N (%): %: 27.3%
  Responders100 - N (%): N: 3
  Remission - N (%): %: 18.2%
  Remission - N (%): N: 2
[12]
  CDAI Change from Baseline - Mean ± SD: −36.8
  Responders70 - N (%): %: 27.8%
  Responders70 - N (%): N: 5
  Responders100 - N (%): %: 27.8%
